Here are results for 21 molecules from PubChem BioAssay AID248 (DTP/NCI, 2004).

SMILES strings stand for the structures. Where “and” joins values, the source holds several entries; their conditions need not be identical. Identical values can stand only once. Toxic doses and inconclusive results are not listed.

For the assay, the system named is L1210 leukemia ip in BDF1 mice, survival T/C. Briefly: NCI In Vivo Anticancer Drug Screen. Data for tumor model L1210 Leukemia (intraperitoneal) in B6D2F1 (BDF1) mice. As to conditions: endpoint: mean survival time, higher = longer survival. The protocol: The antitumor activity of compounds was measured in mice bearing transplantable tumors. Survival or tumor size were measured and the results are expressed as the measurement made in the treated group (T) divided by the measurement made in the vehicle treated control group (C). The tumor model used in this assay is L1210 Leukemia (intraperitoneal) in B6D2F1 (BDF1) mice

The mark [1] stands for this setting: dose: 100.0 mg/kg/injection, schedule: Q04DX003 (ip), vehicle: Klucel (hydroxypropylcellulose) (HPC).
Setting [2] is: dose: 200.0 mg/kg/injection, schedule: Q04DX003 (ip), vehicle: Klucel (hydroxypropylcellulose) (HPC).
[3] abbreviates: dose: 400.0 mg/kg/injection, schedule: Q04DX003 (ip), vehicle: Klucel (hydroxypropylcellulose) (HPC).
Setting [4] is: dose: 100.0 mg/kg/injection, schedule: Q04DX002 (ip), vehicle: Klucel (hydroxypropylcellulose) (HPC).
Setting [5] is: dose: 100.0 mg/kg/injection, schedule: Q01DX009 (ip), vehicle: Klucel (hydroxypropylcellulose) (HPC).
Where [6] appears, read: dose: 200.0 mg/kg/injection, schedule: Q01DX009 (ip), vehicle: Klucel (hydroxypropylcellulose) (HPC).
Where [7] appears, read: dose: 400.0 mg/kg/injection, schedule: Q01DX009 (ip), vehicle: Klucel (hydroxypropylcellulose) (HPC).
Where [8] appears, read: dose: 100.0 mg/kg/injection, schedule: Q04DX002 (ip), vehicle: saline with Tween-80.
Where [9] appears, read: dose: 200.0 mg/kg/injection, schedule: Q04DX002 (ip), vehicle: saline with Tween-80.
Where [10] appears, read: dose: 400.0 mg/kg/injection, schedule: Q04DX002 (ip), vehicle: saline with Tween-80.
Where [11] appears, read: dose: 25.0 mg/kg/injection, schedule: Q01DX009 (ip), vehicle: Klucel (hydroxypropylcellulose) (HPC).
[12] abbreviates: dose: 50.0 mg/kg/injection, schedule: Q01DX009 (ip), vehicle: Klucel (hydroxypropylcellulose) (HPC).
Where [13] appears, read: dose: 100.0 mg/kg/injection, schedule: Q01DX001 (ip), vehicle: saline.
Setting [14] is: dose: 150.0 mg/kg/injection, schedule: Q01DX001 (ip), vehicle: saline.
Setting [15] is: dose: 200.0 mg/kg/injection, schedule: Q01DX001 (ip), vehicle: saline.
The mark [16] stands for this setting: dose: 100.0 mg/kg/injection, schedule: Q01DX001 (ip), vehicle: carboxymethylcellulose (CMC).
[17] abbreviates: dose: 200.0 mg/kg/injection, schedule: Q01DX001 (ip), vehicle: carboxymethylcellulose (CMC).
The mark [18] stands for this setting: dose: 400.0 mg/kg/injection, schedule: Q01DX001 (ip), vehicle: carboxymethylcellulose (CMC).
Where [19] appears, read: dose: 100.0 mg/kg/injection, schedule: Q01DX009 (ip), vehicle: saline.
Where [20] appears, read: dose: 200.0 mg/kg/injection, schedule: Q01DX009 (ip), vehicle: saline.
Setting [21] is: dose: 400.0 mg/kg/injection, schedule: Q01DX009 (ip), vehicle: saline.
[22] abbreviates: dose: 100.0 mg/kg/injection, schedule: Q01DX009 (ip), vehicle: saline with Tween-80.
[23] abbreviates: dose: 200.0 mg/kg/injection, schedule: Q01DX009 (ip), vehicle: saline with Tween-80.
Where [24] appears, read: dose: 200.0 mg/kg/injection, schedule: Q04DX003 (ip), vehicle: saline with Tween-80.
Where [25] appears, read: dose: 400.0 mg/kg/injection, schedule: Q04DX003 (ip), vehicle: saline with Tween-80.

Regarding `CCOC(=O)c1cnc(SC)nc1Nc1ccccc1I`, the T/C is, setting by setting: under setting [1], 101 % of control; under setting [2], 97 % of control; under setting [3], 103 % of control.

With `NCCCNCCCN`, the T/C was 103 % of control (dose: 25.0 mg/kg/injection, schedule: Q04DX002 (ip), vehicle: Klucel (hydroxypropylcellulose) (HPC)); 97 % of control (dose: 50.0 mg/kg/injection, schedule: Q04DX002 (ip), vehicle: Klucel (hydroxypropylcellulose) (HPC)); 103 % of control and 117 % of control under setting [4].

Turning to `CNC(Cc1ccccc1)c1ccc(OC)cc1` (stereo not given), the T/C is 100 % of control under setting [5]; 96 % of control under setting [1]; 98 % of control under setting [6]; 98 % of control under setting [2]; 101 % of control under setting [3].

Consider `CCOC(=O)C(NC(C)=O)C(=O)OCC`, for which the T/C runs as follows: under setting [5], 103 % of control; under setting [1], 107 % of control; under setting [6], 105 % of control; under setting [2], 107 % of control; under setting [7], 107 % of control; under setting [3], 106 % of control.

For the molecule `CC(C)(C)N1OC2(CCCCC2)n2c(=O)c3ccccc3c(=O)n2C1c1ccccc1` (stereo not given), the T/C runs as follows: under setting [8], 97 % of control; under setting [9], 90 % of control; under setting [10], 108 % of control.

Take `CC(C)(C)OC(=O)C(N)CC(N)=O` (stereo not given): the T/C is 106 % of control under setting [5]; 103 % of control under setting [4]; 106 % of control under setting [6]; 88 % of control (dose: 200.0 mg/kg/injection, schedule: Q04DX002 (ip), vehicle: Klucel (hydroxypropylcellulose) (HPC)); 98 % of control under setting [7]; 98 % of control (dose: 400.0 mg/kg/injection, schedule: Q04DX002 (ip), vehicle: Klucel (hydroxypropylcellulose) (HPC)).

With `NC(N)=N/N=C/c1ccc(O)cc1`, the T/C (dose: 15.0 mg/kg/injection, schedule: Q01DX Z (ip), vehicle: saline) is 104 % of control; the T/C (dose: 30.0 mg/kg/injection, schedule: Q01DX Z (ip), vehicle: saline) is 88 % of control; the T/C (dose: 30.0 mg/kg/injection, schedule: Q01DX Z (oral), vehicle: saline) is 94 % of control; the T/C (dose: 60.0 mg/kg/injection, schedule: Q01DX Z (ip), vehicle: saline) is 95 % of control; the T/C (dose: 60.0 mg/kg/injection, schedule: Q01DX Z (oral), vehicle: saline) was 94 % of control; the T/C (dose: 120.0 mg/kg/injection, schedule: Q01DX Z (oral), vehicle: saline) was 90 % of control. For the same molecule, the T/C (dose: 240.0 mg/kg/injection, schedule: Q01DX Z (oral), vehicle: saline) was 100 % of control.

On to `NCc1cccn1OCc1ccccc1`, for which the T/C is 108 % of control under setting [11], 108 % of control under setting [12] and 152 % of control under setting [5].

`NCCc1cnc(N=Nc2ccc(C(=O)O)cc2)[nH]1`: the T/C reads like this: under setting [12], 89 % of control; under setting [5], 89 % of control; under setting [6], 87 % of control.

`CC1COCC(C)N1CC(=O)NCCCN1CCN(CCCNC(=O)CN2C(C)COCC2C)CC1` (stereo not given): the T/C runs as follows: (dose: 44.0 mg/kg/injection, schedule: Q01DX001 (ip), vehicle: saline) 98 % of control and 103 % of control; (dose: 66.0 mg/kg/injection, schedule: Q01DX001 (ip), vehicle: saline) 104 % of control and 108 % of control; under setting [13], 104 % of control and 105 % of control; under setting [14], 110 % of control and 116 % of control; under setting [15], 113 % of control.

Regarding `O=C1/C(=C/c2ccccc2)CCC/C1=C\c1ccccc1`, the T/C by setting is: under setting [8], 92 % of control; under setting [9], 92 % of control; under setting [10], 95 % of control.

Take `COc1cc2c(cc1OC)-c1oncc1CCC2`: the T/C under setting [16] is 95 % of control, the T/C under setting [17] was 106 % of control and the T/C under setting [18] is 88 % of control.

Consider `Cc1ccc(C)c(NC(=O)Nc2ccccc2)c1`, for which the T/C reads like this: under setting [5], 100 % of control; under setting [1], 98 % of control; under setting [6], 94 % of control; under setting [2], 96 % of control; under setting [7], 98 % of control; under setting [3], 91 % of control.

As for `C/C(=N\N=C(/C)c1ccc2cc3c(cc2c1)OCO3)c1ccc2cc3c(cc2c1)OCO3`, the T/C is 97 % of control (dose: 75.0 mg/kg/injection, schedule: Q01DX001 (ip), vehicle: saline); 92 % of control under setting [14]; 89 % of control (dose: 300.0 mg/kg/injection, schedule: Q01DX001 (ip), vehicle: saline).

On to `CC1(C)NC(=O)N(CCCl)C1=O`, for which the T/C reads like this: (dose: 50.0 mg/kg/injection, schedule: Q04DX003 (ip), vehicle: saline) 97 % of control; under setting [19], 96 % of control; (dose: 100.0 mg/kg/injection, schedule: Q04DX003 (ip), vehicle: saline) 92 % of control; under setting [20], 96 % of control; (dose: 200.0 mg/kg/injection, schedule: Q04DX003 (ip), vehicle: saline) 97 % of control; under setting [21], 98 % of control. Further, the T/C (dose: 400.0 mg/kg/injection, schedule: Q04DX003 (ip), vehicle: saline) is 103 % of control.

As for `NC(=S)N/N=C/c1cc(Cl)ccc1O`, the T/C reads like this: under setting [16], 94 % of control; under setting [17], 100 % of control; under setting [18], 96 % of control.

For `CCC(=O)Nc1cc(C(F)(F)F)ccc1Cl`, the T/C is, setting by setting: under setting [22], 96 % of control; (dose: 100.0 mg/kg/injection, schedule: Q04DX003 (ip), vehicle: saline with Tween-80) 103 % of control; under setting [23], 96 % of control; under setting [24], 98 % of control; (dose: 400.0 mg/kg/injection, schedule: Q01DX009 (ip), vehicle: saline with Tween-80) 98 % of control; under setting [25], 98 % of control.

For `C=CC(=O)NC1CCCCC1`, the T/C under setting [11] was 97 % of control; the T/C under setting [12] is 95 % of control; the T/C under setting [5] was 102 % of control; the T/C under setting [1] is 100 % of control; the T/C under setting [2] is 98 % of control; the T/C under setting [3] is 100 % of control.

In the case of `CC1(C)/C(=C\C(=O)O)C2CCC1C2` (stereo not given), the T/C under setting [13] was 103 % of control; the T/C under setting [19] was 91 % of control; the T/C (dose: 100.0 mg/kg/injection, schedule: Q04DX003 (ip), vehicle: acetone) was 106 % of control; the T/C under setting [15] was 97 % of control; the T/C under setting [20] was 90 % of control; the T/C (dose: 200.0 mg/kg/injection, schedule: Q04DX003 (ip), vehicle: acetone) is 93 % of control. Moreover, the T/C reads like this: (dose: 400.0 mg/kg/injection, schedule: Q01DX001 (ip), vehicle: saline) 105 % of control; under setting [21], 98 % of control; (dose: 400.0 mg/kg/injection, schedule: Q04DX003 (ip), vehicle: acetone) 89 % of control.

Take `OC1CCC(CC2CCCCC2)CC1` (stereo not given): the T/C runs as follows: under setting [24], 92 % of control; under setting [25], 91 % of control.

`C/C=C/C1CC2CC(C1C)C2(C)C` (stereo not given): the T/C (dose: 50.0 mg/kg/injection, schedule: Q01DX009 (ip), vehicle: saline with Tween-80) was 97 % of control; the T/C under setting [22] was 97 % of control; the T/C under setting [23] is 101 % of control.
